In PMC9103764, “Pilot Study on Acute Effects of Pharmacological Intraperitoneal L-Homoarginine on Homeostasis of Lysine and Other Amino Acids in a Rat Model of Isoprenaline-Induced Takotsubo Cardiomyopathy” (International Journal of Molecular Sciences, 2022):

Assays:
[1] = tested on: serotonin receptor 4; details: cited from earlier work
[2] = oral hArg 125 mg/day, cited from earlier work
[3] = design: method as in PMID 28710553; details: single i.p. hArg 20, 220, 440 mg/kg; cited from earlier work
[4] = design: method as in PMID 31776762; details: decarboxylation product of hArg; rat TTC model; cited from earlier work
[5] = design: method as in PMID 24004504; details: cited from earlier work
[6] = tested on: polyamine catabolism; assay: Putrescine:spermidine (PUT/SPD) molar ratio in organ homogenates; details: R17; hArg 440 mg/kg i.p.; 14 min; without isoprenaline
[7] = tested on: L-Arginine:glycine amidinotransferase (AGAT); assay: Equilibrium constants of the AGAT-catalyzed reactions calculated from free amino acid concentrations in rat organs; type: in vivo, Sprague-Dawley rats
[8] = tested on: arginase; design: method as in PMID 31028716; details: cited from earlier work
[9] = Free amino acids by GC-MS in organ homogenates of rats given i.p. hArg (isoprenaline-induced takotsubo model)
[10] = hArg treatment, mice, dose-dependent
[11] = R1, hArg 440 mg/kg i.p., sacrifice 32 min, ISO 50 mg/kg i.p. at 15 min
[12] = R2, hArg 20 mg/kg i.p., sacrifice 64 min, ISO 50 mg/kg i.p. at 15 min
[13] = R3, hArg 20 mg/kg i.p., sacrifice 28 min, ISO 50 mg/kg i.p. at 15 min
[14] = R4, hArg 440 mg/kg i.p., sacrifice 87 min, ISO 50 mg/kg i.p. at 15 min
[15] = R13, hArg 20 mg/kg i.p., sacrifice 126 min, ISO 50 mg/kg i.p. at 15 min
[16] = R14, hArg 220 mg/kg i.p., sacrifice 108 min, ISO 50 mg/kg i.p. at 15 min
[17] = R17, hArg 440 mg/kg i.p., sacrifice 14 min, no ISO
[18] = R18, hArg 20 mg/kg i.p., sacrifice 114 min, ISO 50 mg/kg i.p. at 15 min
[19] = R19, hArg 220 mg/kg i.p., sacrifice 98 min, ISO 50 mg/kg i.p. at 15 min

**Q.** Which “action at serotonin receptor 4” value [1] does the source give for NCCCC[C@H](N)C(=O)O [Lys, L-lysine] here?
**A.** The value was “partial serotonin receptor 4 antagonist”.

**Q.** Which results are given for N=C(N)NCCCC[C@H](N)C(=O)O [hArg, L-homoarginine]?
**A.** effects on cognition ([2]; healthy humans): did not reveal any appreciable effects on cognition; increase of plasma Lys concentration compared to placebo ([2]; healthy young volunteers): about 8%; pulse wave velocity, augmentation index, flow-mediated vasodilatation, corticospinal and cortical excitability ([2]; healthy young volunteers): without changes; changes in nitrite and nitrate [3]: marginal; tissue homoagmatine (hAgm) concentration, median [interquartile range] [4]: 34.8 [4.6–270] nM; infarct size [5, 10]: decreased infarct sizes; neurological scores [5, 10]: improved neurological scores; hArg plasma concentration ([5]; oral hArg, C57BL6 mice, versus vehicle-treated): 0.20 ± 0.02 µM; PUT/SPD molar ratio, heart [6]: 1.5; PUT/SPD molar ratio, kidney [6]: 0.86; PUT/SPD molar ratio, liver [6]: 0.12; PUT/SPD molar ratio, lung [6]: 0.83; KhArg/KGAA ratio, kidney [7, 11]: 0.13; KhArg/KGAA ratio, lung [7, 11]: 6.8; equilibrium constant KGAA, kidney [7, 11]: 1.83; equilibrium constant KGAA, lung [7, 11]: 0.06; equilibrium constant KhArg, kidney [7, 11]: 0.24; equilibrium constant KhArg, lung [7, 11]: 0.40; KhArg/KGAA ratio, heart [7, 12]: 0.002; KhArg/KGAA ratio, kidney [7, 12]: 0.23; KhArg/KGAA ratio, liver [7, 12]: 0.19; KhArg/KGAA ratio, lung [7, 12]: 0.13; equilibrium constant KGAA, heart [7, 12]: 2.26; equilibrium constant KGAA, kidney [7, 12]: 0.31; equilibrium constant KGAA, liver [7, 12]: 0.09; equilibrium constant KGAA, lung [7, 12]: 0.023; equilibrium constant KhArg, heart [7, 12]: 0.005; equilibrium constant KhArg, kidney [7, 12]: 0.07; equilibrium constant KhArg, liver [7, 12]: 0.02; equilibrium constant KhArg, lung [7, 12]: 0.003; KhArg/KGAA ratio, heart [7, 13]: 0.001; KhArg/KGAA ratio, kidney [7, 13]: 0.16; KhArg/KGAA ratio, liver [7, 13]: 0.35; KhArg/KGAA ratio, lung [7, 13]: 0.06; equilibrium constant KGAA, heart [7, 13]: 1.39; equilibrium constant KGAA, kidney [7, 13]: 0.37; equilibrium constant KGAA, liver [7, 13]: 2.11; equilibrium constant KGAA, lung [7, 13]: 5.34; equilibrium constant KhArg, heart [7, 13]: 0.002; equilibrium constant KhArg, kidney [7, 13]: 0.06; equilibrium constant KhArg, liver [7, 13]: 0.74; equilibrium constant KhArg, lung [7, 13]: 0.31; KhArg/KGAA ratio, kidney [7, 14]: 2.18; KhArg/KGAA ratio, liver [7, 14]: 1.61; KhArg/KGAA ratio, lung [7, 14]: 2.61; equilibrium constant KGAA, kidney [7, 14]: 0.53; equilibrium constant KGAA, liver [7, 14]: 12.6; equilibrium constant KGAA, lung [7, 14]: 0.13; equilibrium constant KhArg, kidney [7, 14]: 1.16; equilibrium constant KhArg, liver [7, 14]: 20.3; equilibrium constant KhArg, lung [7, 14]: 0.34; KhArg/KGAA ratio, heart [7, 15]: 0.43; KhArg/KGAA ratio, kidney [7, 15]: 0.006; KhArg/KGAA ratio, liver [7, 15]: 0.31; KhArg/KGAA ratio, lung [7, 15]: 0.27; equilibrium constant KGAA, heart [7, 15]: 0.23; equilibrium constant KGAA, kidney [7, 15]: 1.14; equilibrium constant KGAA, liver [7, 15]: 2.45; equilibrium constant KGAA, lung [7, 15]: 0.07; equilibrium constant KhArg, heart [7, 15]: 0.10; equilibrium constant KhArg, kidney [7, 15]: 0.007; equilibrium constant KhArg, liver [7, 15]: 0.76; equilibrium constant KhArg, lung [7, 15]: 0.02; KhArg/KGAA ratio, heart [7, 16]: 1.9; KhArg/KGAA ratio, kidney [7, 16]: 0.05; KhArg/KGAA ratio, liver [7, 16]: 4.8; KhArg/KGAA ratio, lung [7, 16]: 1.13; equilibrium constant KGAA, heart [7, 16]: 0.20; equilibrium constant KGAA, kidney [7, 16]: 1.32; equilibrium constant KGAA, liver [7, 16]: 1.07; equilibrium constant KGAA, lung [7, 16]: 0.03; equilibrium constant KhArg, heart [7, 16]: 0.38; equilibrium constant KhArg, kidney [7, 16]: 0.06; equilibrium constant KhArg, liver [7, 16]: 5.16; equilibrium constant KhArg, lung [7, 16]: 0.03; KhArg/KGAA ratio, heart [7, 17]: 3.8; KhArg/KGAA ratio, kidney [7, 17]: 0.07; KhArg/KGAA ratio, liver [7, 17]: 6.7; KhArg/KGAA ratio, lung [7, 17]: 4.0; equilibrium constant KGAA, heart [7, 17]: 0.09; equilibrium constant KGAA, kidney [7, 17]: 1.64; equilibrium constant KGAA, liver [7, 17]: 0.80; equilibrium constant KGAA, lung [7, 17]: 0.04; equilibrium constant KhArg, heart [7, 17]: 0.33; equilibrium constant KhArg, kidney [7, 17]: 0.12; equilibrium constant KhArg, liver [7, 17]: 5.38; equilibrium constant KhArg, lung [7, 17]: 0.17; KhArg/KGAA ratio, heart [7, 18]: 0.36; KhArg/KGAA ratio, kidney [7, 18]: 0.005; KhArg/KGAA ratio, liver [7, 18]: 0.12; KhArg/KGAA ratio, lung [7, 18]: 0.12; equilibrium constant KGAA, heart [7, 18]: 0.31; equilibrium constant KGAA, kidney [7, 18]: 1.94; equilibrium constant KGAA, liver [7, 18]: 4.20; equilibrium constant KGAA, lung [7, 18]: 0.21; equilibrium constant KhArg, heart [7, 18]: 0.11; equilibrium constant KhArg, kidney [7, 18]: 0.009; equilibrium constant KhArg, liver [7, 18]: 0.50; equilibrium constant KhArg, lung [7, 18]: 0.03; KhArg/KGAA ratio, kidney [7, 19]: 1.8; KhArg/KGAA ratio, liver [7, 19]: 2.0; equilibrium constant KGAA, kidney [7, 19]: 0.35; equilibrium constant KGAA, liver [7, 19]: 2.59; equilibrium constant KhArg, kidney [7, 19]: 0.62; equilibrium constant KhArg, liver [7, 19]: 5.26; equilibrium constant KhArg, lung [7, 19]: 0.20; substrate quality for arginase [8]: poor substrate; free Arg concentration, kidney homogenate [9, 11]: 365 µM; free Arg concentration, lung homogenate [9, 11]: 102 µM; free Lys concentration, kidney homogenate [9, 11]: 646 µM; free Lys concentration, lung homogenate [9, 11]: 229 µM; free Arg concentration, heart homogenate [9, 12]: 384 µM; free Arg concentration, kidney homogenate [9, 12]: 37.4 µM; free Arg concentration, liver homogenate [9, 12]: 124 µM; free Arg concentration, lung homogenate [9, 12]: 210 µM; free Lys concentration, heart homogenate [9, 12]: 644 µM; free Lys concentration, kidney homogenate [9, 12]: 96 µM; free Lys concentration, liver homogenate [9, 12]: 241 µM; free Lys concentration, lung homogenate [9, 12]: 306 µM; free Arg concentration, heart homogenate [9, 13]: 575 µM; free Arg concentration, kidney homogenate [9, 13]: 60.7 µM; free Arg concentration, liver homogenate [9, 13]: 14.3 µM; free Arg concentration, lung homogenate [9, 13]: 7.34 µM; free Lys concentration, heart homogenate [9, 13]: 834 µM; free Lys concentration, kidney homogenate [9, 13]: 173 µM; free Lys concentration, liver homogenate [9, 13]: 392 µM; free Lys concentration, lung homogenate [9, 13]: 191 µM; free Arg concentration, kidney homogenate [9, 14]: 73.8 µM; free Arg concentration, liver homogenate [9, 14]: 10.3 µM; free Arg concentration, lung homogenate [9, 14]: 185 µM; free Lys concentration, kidney homogenate [9, 14]: 187 µM; free Lys concentration, liver homogenate [9, 14]: 714 µM; free Lys concentration, lung homogenate [9, 14]: 441 µM; free Arg concentration, heart homogenate [9, 15]: 75.4 µM; free Arg concentration, kidney homogenate [9, 15]: 370 µM; free Arg concentration, liver homogenate [9, 15]: 21.2 µM; free Arg concentration, lung homogenate [9, 15]: 261 µM; free Lys concentration, heart homogenate [9, 15]: 151 µM; free Lys concentration, kidney homogenate [9, 15]: 602 µM; free Lys concentration, liver homogenate [9, 15]: 492 µM; free Lys concentration, lung homogenate [9, 15]: 471 µM; free Arg concentration, heart homogenate [9, 16]: 91.2 µM; free Arg concentration, kidney homogenate [9, 16]: 733 µM; free Arg concentration, liver homogenate [9, 16]: 15.9 µM; free Arg concentration, lung homogenate [9, 16]: 171 µM; free Lys concentration, heart homogenate [9, 16]: 154 µM; free Lys concentration, kidney homogenate [9, 16]: 1101 µM; free Lys concentration, liver homogenate [9, 16]: 391 µM; free Lys concentration, lung homogenate [9, 16]: 245 µM; free Arg concentration, heart homogenate [9, 17]: 92 µM; free Arg concentration, kidney homogenate [9, 17]: 767 µM; free Arg concentration, liver homogenate [9, 17]: 29.8 µM; free Arg concentration, lung homogenate [9, 17]: 230 µM; free Lys concentration, heart homogenate [9, 17]: 140 µM; free Lys concentration, kidney homogenate [9, 17]: 1138 µM; free Lys concentration, liver homogenate [9, 17]: 497 µM; free Lys concentration, lung homogenate [9, 17]: 386 µM; free Arg concentration, heart homogenate [9, 18]: 51.3 µM; free Arg concentration, kidney homogenate [9, 18]: 262 µM; free Arg concentration, liver homogenate [9, 18]: 10.1 µM; free Arg concentration, lung homogenate [9, 18]: 136 µM; free Lys concentration, heart homogenate [9, 18]: 153 µM; free Lys concentration, kidney homogenate [9, 18]: 503 µM; free Lys concentration, liver homogenate [9, 18]: 328 µM; free Lys concentration, lung homogenate [9, 18]: 391 µM; free Arg concentration, kidney homogenate [9, 19]: 56.3 µM; free Arg concentration, liver homogenate [9, 19]: 15 µM; free Arg concentration, lung homogenate [9, 19]: 233 µM; free Lys concentration, kidney homogenate [9, 19]: 145 µM; free Lys concentration, liver homogenate [9, 19]: 451 µM; free Lys concentration, lung homogenate [9, 19]: 169 µM; increase in free GAA in the kidney ([9]; after i.p. hArg, Figure 5): ~100 fold; effect on global arginine bioavailability ratio (GABR) ([9]; all organs, data not shown): independent of the hArg dose; effect on citrullination (proteinic Cit) in organs (all organs, data not shown): independent of the hArg dose; incorporation of pharmacological hArg into tissue proteins (rat, in vivo): no incorporation of pharmacological hArg into tissue proteins
